These results are taken from US20040048791A1, “Method for treating neoplastic cells using cycloprodigiosin or salt thereof” (priority 2002, published 2004).

“Also recorded” adds a separate entry of the source. Structures can show the parent of a compound that is named as a salt.

The target in test [1] is PKA (Homo sapiens, UniProt P17612). Put plainly: PKA activity in vitro. Conditions: FIG. 13, hydrochloride. It is filed as biochemical. The text has this: (§1) Accordingly, in order to identify the p65 kinase which cPrG-HCl suppressed, the effect of cPrG-HCl on PKA (FIG. 13), casein kinase II (CKII) (FIG. 12), and IκB kinase (IKK) (FIG. 14) was studied in vitro.
The subject of test [2] is CRE binding factor. The test can be described thus: CRE luciferase assay (pCRELuc) in COS-7 cells. The class given is cell-based, African green monkey. The following applies: PMA 1 μg/ml 4 hours, FIG. 8. The protocol:
Here in order to analyze the effect of cPrG-HCl on the CRE binding factor, luciferase assay was carried out using a reporter plasmid (pCRELuc) in which the luciferase gene is linked downstream of the CRE sequence.
The pCRELuc was transfected in COS-7 cells. After 24 hours, the cells were pretreated with cPrG-HCl at a specified concentration for 1 hour and further stimulated with phorbol ester myristate acetate PMA (1 μg/ml) for 4 hours, after which luciferase activity was measured.

In test [3] the test system is CMV promoter. Put plainly: CMV promoter-dependent luciferase gene expression (control). It is filed as cell-based. Conditions: FIG. 2B. How it is done: Luciferase gene reporter assay and Kinase assays of IKK: HeLa cells were transfected with the reporter plasmids described above using Lipofectin (GIBCO BRL). After 24-48 hr, the luciferase activity was determined using the Luciferase Assay System (Promega). The kinase activity of IKKα and IKKβ were analyzed by immune complex kinase assay as described previously (Oka, S., Kamata, H., Kamata, K., Yagisawa, H. and Hirata, H. (2000) FEBS Lett. 472, 196-202). The substrates was using GST-IκBα(1-55) or GST-p65(399-551).

Test [4] addresses T1, IκB kinase (IKK) (Homo sapiens, UniProt O14920+O15111).
T1 sequence (O15111 1-745): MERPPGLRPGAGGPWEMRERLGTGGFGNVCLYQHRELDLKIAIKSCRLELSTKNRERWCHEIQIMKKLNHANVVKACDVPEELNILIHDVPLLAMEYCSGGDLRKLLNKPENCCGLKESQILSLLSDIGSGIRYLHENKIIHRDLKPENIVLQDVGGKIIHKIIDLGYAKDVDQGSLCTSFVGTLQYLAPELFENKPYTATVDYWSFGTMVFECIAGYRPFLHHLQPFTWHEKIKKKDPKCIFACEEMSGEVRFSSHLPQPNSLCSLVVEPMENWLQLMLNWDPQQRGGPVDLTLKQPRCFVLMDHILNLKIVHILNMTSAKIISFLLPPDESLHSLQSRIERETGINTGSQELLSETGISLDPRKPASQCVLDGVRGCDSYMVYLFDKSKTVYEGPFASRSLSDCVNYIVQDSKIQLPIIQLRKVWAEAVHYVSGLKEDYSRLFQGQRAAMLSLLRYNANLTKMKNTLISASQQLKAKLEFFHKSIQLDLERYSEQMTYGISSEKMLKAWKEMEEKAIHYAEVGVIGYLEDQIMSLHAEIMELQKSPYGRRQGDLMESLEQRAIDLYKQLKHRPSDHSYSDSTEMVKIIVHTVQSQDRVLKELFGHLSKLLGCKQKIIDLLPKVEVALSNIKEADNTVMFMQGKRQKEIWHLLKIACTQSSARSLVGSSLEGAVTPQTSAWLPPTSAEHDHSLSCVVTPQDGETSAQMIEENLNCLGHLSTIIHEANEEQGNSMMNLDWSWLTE
T1 sequence (O14920 1-756): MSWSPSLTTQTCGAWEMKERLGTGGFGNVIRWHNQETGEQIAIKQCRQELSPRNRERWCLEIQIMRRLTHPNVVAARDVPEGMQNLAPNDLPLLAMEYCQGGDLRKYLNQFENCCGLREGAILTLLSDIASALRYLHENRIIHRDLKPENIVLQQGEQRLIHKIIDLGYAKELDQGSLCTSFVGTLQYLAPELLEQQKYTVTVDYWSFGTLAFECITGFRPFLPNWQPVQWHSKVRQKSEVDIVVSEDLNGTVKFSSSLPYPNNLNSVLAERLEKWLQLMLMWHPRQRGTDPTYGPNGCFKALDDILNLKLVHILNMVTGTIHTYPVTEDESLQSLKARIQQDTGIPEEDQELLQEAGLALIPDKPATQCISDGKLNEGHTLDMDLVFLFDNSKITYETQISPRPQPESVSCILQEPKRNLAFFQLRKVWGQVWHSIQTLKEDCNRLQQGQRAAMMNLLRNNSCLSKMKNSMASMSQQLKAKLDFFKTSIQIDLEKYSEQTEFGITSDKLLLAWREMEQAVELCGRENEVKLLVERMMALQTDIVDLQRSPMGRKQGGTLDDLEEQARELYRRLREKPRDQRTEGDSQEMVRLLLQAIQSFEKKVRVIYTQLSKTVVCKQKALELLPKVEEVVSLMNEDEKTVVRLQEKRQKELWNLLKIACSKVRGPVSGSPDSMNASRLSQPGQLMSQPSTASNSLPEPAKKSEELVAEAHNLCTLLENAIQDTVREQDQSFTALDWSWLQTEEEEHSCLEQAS
The test can be described thus: IκB kinase activity in vitro. The class given is biochemical. The following applies: FIG. 14, hydrochloride.
Source text: as §1

For the molecule `COC1=CC(c2ccc[nH]2)=N/C1=C\c1[nH]c(C)c2c1C(C)CCC2` (stereo not shown) [cPrG-HCl, Cycloprodigiosin hydrochloride], in test [1], the “effect on PKA activity” value is recorded as “does not directly suppress; also recorded: no suppressive effect”. In addition, the “PMA-induced CRE-dependent transcriptional activity” value in test [2] is “markedly suppressed”. Also, the “expression of the CMV promoter-dependent luciferase gene” value in test [3] is recorded as “did not inhibit”. Moreover, the “effect on IκB kinase (IKK) activity” value in test [4] is “does not directly suppress; also recorded: no suppressive effect”.
